From patent publication US20080194020A1, “Methods For Producing Dendritic Cells That Have Acquired Ctl-Inducing Ability” (Medical and Biological Laboratories Co., Ltd., priority 2004, published 2008) come the findings set out here.

Entries after “also recorded” stand apart in the source; their conditions may differ.

Assay type in all cases: cell-based, mouse
In assay [1] the test system is DC2.4 cells. Briefly: MHC class I cross-presentation by DC2.4 cells to OT-I CD8+ T cells (IL-2 ELISA). An excerpt:
Whether knock-down of cellular components involved in ERAD decreases the cross-presentation of exogenous OVA antigen was examined using a system for evaluating the level of antigen presentation, which uses naive CD8^+ T cells from OT-I mice and DC2.4 cells. The DC2.4 cells used as a model of dendritic cells are of the H-2Kb mouse MHC class I haplotype. OT-I (H-2Kb) mice are transgenic mice expressing a T cell receptor (TCRα and β) that recognizes an antigenic peptide (SIINFEKL) (SEQ ID NO: 15) derived from OVA presented on the H-2Kb molecules. The CD8^+ cells of OT-I mice are activated when they recognize OVA peptides presented by BMDCs derived from H-2Kb mice or by DC2.4 cells. When OVA or bOVA is incubated with and affixed onto DC2.4 cells and the cells are further incubated with naive CD8^+ T cells of OT-I mice, the amount of IL-2 produced by OT-I CD8^+ T cells serves as an index of T-cell stimulation as a result of OVA antigen presented by DC2.4 cells.
Parental or knocked-down DC2.4 cells were pre-incubated in a culture medium supplemented with 50 μg mL^−1 polymyxin B for 30 minutes in the presence or absence of lactacystin or MG-132, and incubated with OVA (250 μg mL^−1) or SIINFEKL peptides (10 ng mL^−1) for six hours. The cells were washed, fixed with 1% paraformaldehyde, and aliquoted into microtiter plates (5×10^4 per well). 5×10^4 CD8^+ T cells purified from splenocytes of OT-1 mice using magnetic beads were added to each well and after a 24-hour incubation, the IL-2 secretion was measured by ELISA (BD Biosciences) in triplicate.
DC2.4 cells were incubated with OVA (0, 50, or 250 μg/mL) in RPMI1640/10c% FCS for six hours at 37° C., in the presence or absence of pig-derived HSP90 (10 μg/mL). After washing away the antigen and HSP, OT-I CD8^+ T cells were added, cells were cultured overnight at 37° C., and the amount of IL-2 comprised in the supernatant was measured by the ELISA method.
The timing of the addition of HSP90 (10 μg/mL) and OVA (250 μg/mL) to DC2.4 cells was varied, and the effect on class I antigen presentation was observed. (i) HSP90 was added first, DC2.4 cells were washed, and then OVA was added. (ii) HSP90 and OVA were added simultaneously to DC2.4 cells. (iii) OVA was added first, and after washing DC2.4 cells, HSP90 was added. The results obtained under these three conditions were compared. As a control for all these conditions, an experiment in which only OVA, but not HSP90, was added was also carried out.
Under condition (i), HSP90 was added to DC2.4 cells, the cells were cultured for 30 minutes and then washed to remove HSP90. Next, OVA was added and the cells were cultured for three hours. Thereafter, OVA was removed by washing, and cells were cultured in just the culture medium for three hours. DC2.4 cells activated with OVA by the above procedure were plated in a 96-well plate, OT-I mouse-derived CD8^+ T cells were added to this, and after culturing overnight, the amount of IL-2 released into the supernatant was measured by ELISA.
Under condition (ii), OVA and HSP90 were added simultaneously to DC2.4 cells, cells were cultured for three hours, then washed, and cultured in just the culture medium for three hours. Thereafter, the procedures to investigate the activation of OT-I mouse-derived CD8^+ T cells was carried out similarly to in (i) above.
Under condition (iii), OVA was first added to DC2.4 cells, cells were cultured for three hours, and then washed to remove OVA. Next, HSP90 was added, and the cells were cultured for another three hours. The procedures that follow were carried out similarly to that of (i) and (ii). Meanwhile, timings were set such that the incubation times during the stage in which cells are in contact with OVA and the stage at which OVA has been taken up were the same under conditions (i) to (iii).
A general note: An ELISA detects its analyte on a solid surface through an enzyme-linked reagent.

The test system of assay [2] is bone marrow-derived dendritic cells (BMDCs). The experiment in a line: MHC class II antigen presentation by BMDCs to OT-II CD4+ T cells (IL-2 ELISA). The note with it: HSP90 10 μg/mL added at the same time as OVA (0, 50 or 250 μg/mL). The method, then:
Mouse bone marrow-derived dendritic cells (BMDCs) were prepared as follows: cells were taken out from mouse bone marrow and cultured for five days in RPMI medium containing GM-CSF and 5% FCS, during which the medium was partially exchange. This culturing method leads to growth of macrophages, dendritic cells, and such; therefore, dendritic cells alone were collected using CD11c magnetic beads, and these cells were used as bone marrow-derived dendritic cells (BMDCs).
The bone marrow-derived dendritic cells (BMDCs) prepared as above or the mouse dendritic cell line DC2.4 cells were plated in a 96-well plate at 5×10^4 cells per well. Next, in the presence of 50 μg/mL of polynyxin B, which is an endotoxin inhibitor, OVA (0, 50, or 250 μg/mL)and HSP90 (0 or 10 μg/mL) were added, the total fluid volume was adjusted to 200 μL, and this was cultured overnight at 37° C. Since endotoxin is known to activate DCs, polymyxin B was added to eliminate the effects of its contamination of reagents, equipment, and such. After culturing, the aforementioned cells in the wells were washed twice to remove the remaining OVA and HSP90 that were not taken up by the cells. […] The wells were centrifuged, the supernatant was collected, and the amount of IL-2 in the supernatant was measured by ELISA.

The test system of assay [3] is DC2.4 cells. Briefly: Uptake of antigenic protein into DC2.4 cells. The method, then: Next, DC2.4 cells were incubated for a set amount of time with OVA in the presence or absence of lactacystin (LC), and OVA taken up into the cells was measured. OVA taken up into cells in the presence or absence of Hsp90 was measured similarly.
Assay [4] concerns BMDCs. The experiment in a line: MHC class I antigen presentation by BMDCs to OT-I CD8+ cells. As to conditions: BMDCs incubated with OVA in the presence or absence of HSP90.
Assay [5] relates to DC2.4 cells. The experiment in a line: Polyubiquitination of antigenic protein taken up by DC2.4 cells (SDS-PAGE, Western blot with anti-polyubiquitin antibody). As to conditions: DC2.4 cells incubated with GST-OVA in the presence or absence of Hsp90. The method, then: There are reports that when the KDEL sequence (Lys-Asp-Glu-Leu) (SEQ ID NO: 3), an endoplasmic reticulum localization sequence, is added to the carboxyl terminus of a protein localized in the ER lumen, the protein is repeatedly transported between the ER and Golgi apparatus, and ERAD of that protein is promoted. Therefore, DC2.4 cells were made to take up OVA with KDEL (SEQ ID NO: 3) added to its C-terminus, and OVA that was polyubiquitinated after uptake was observed by SDS-PAGE and Western blotting. OVA to which a KDEL sequence (SEQ ID NO: 3) was added was constructed and expressed as follows: using a plasmid comprising a DNA sequence encoding OVA as a template, PCR was performed using oligo-1 (SEQ ID NO: 10) and oligo-2 (SEQ ID NO: 11) as primers. The amplified PCR product of approximately 1100 bp was introduced into a pCR-Blunt vector (Invitrogen) to obtain vector-1. Oligo-3 (SEQ ID NO: 12) and oligo-4 (SEQ ID NO: 13) were annealed, and the obtained gene fragment of approximately 100 bp was introduced into the pCR-Blunt vector to obtain vector-2. Vector-2 was digested with SpeI, the obtained gene fragment of approximately 130 bp was introduced into vector-1 that had been digested with NheI to obtain vector-3. An approximately 1250-bp gene fragment (OVA-KDEL) obtained when vector-3 was digested with BamHI/SpeI was introduced into a vector for gene expression, and then expressed. […]

With “HSP90: pig-derived HSP90, molecular chaperone (heat shock protein) of about 90 kDa; porcine sequence SEQ ID NO: 1”, the “effect on OVA antigen presentation to OT-I CD8+ T cells (IL-2)” value in assay [1] (DC2.4 cells, OVA 0, 50 or 250 μg/mL, six hours, pig-derived HSP90 10 μg/mL versus OVA alone) is given as “a stronger antigen presentation was observed; also recorded: increase antigen presentation”. The “Hsp90 concentration dependence of antigen presentation ability” value in assay [1] (DC2.4 cells, Hsp90 10 μg/mL and 50 μg/mL) is listed as “increased in an Hsp90 concentration-dependent manner; also recorded: antigen-presenting ability increases in a manner dependent on Hsp90 concentration”. For the same substance, the “effect on IL-2 production versus OVA-only control” value is recorded as “cannot be observed unless it is added simultaneously” in assay [1] (condition (i): HSP90 added first, cells washed, then OVA); “increase in the amount of IL-2 production” in assay [1] (condition (ii): HSP90 10 μg/mL and OVA 250 μg/mL added simultaneously to DC2.4 cells); “not to yield any effect” in assay [1] (condition (iii): OVA added first, cells washed, then HSP90). The “effect on IL-2 production by OT-II CD4+ T cells (MHC class II presentation)” value in assay [2] is on record as “not enhanced”. Moreover, the “effect on OVA taken up into cells” value in assay [3] (DC2.4 cells incubated with OVA in the presence or absence of Hsp90 and lactacystin) is “take up OVA into cells more efficiently; also recorded: uptake of OVA increased”. Besides, in assay [3] (FIG. 10 lane 4 versus lane 3, presence or absence of HSP90), the “effect on amount of GST-OVA taken up” value is “the increase in the amount taken up in the presence of HSP90 is not great”. Also, the “effect on OVA antigen presentation to OT-I CD8+ cells” value in assay [4] was “increase antigen presentation”. Also, the “effect on polyubiquitination of GST-OVA taken up” value is “the increase in polyubiquitination in the presence of HSP90 is very pronounced” in assay [5] and “more strongly polyubiquitinated” in assay [5] (listed as Hsp90).
